Consider one compound from publication PMC12019328, “Discovery of an ApoE4-targeted small-molecule SirT1 enhancer for the treatment of Alzheimer’s disease” (Scientific Reports, 2025).

The test system of experiment [1] is hippocampal proteins. The experiment is described as follows: Global proteomics on hippocampal brain tissue. In kind it is in vivo, mice. The procedure: Hippocampal brain tissue from both DDL-218- and vehicle-treated mice underwent global proteomics analysis, as described in Supplementary Methods.
Liquid chromatography tandem mass spectrometry (LC-MS/MS) was used for proteomic analysis.
Proteins from hippocampal tissue from mice treated with either DDL-218 or vehicle were diluted in T-PER buffer and concentrations adjusted after BCA protein quantitation assay (Thermo Fisher Scientific). The protein disulfide bonds were reduced and alkylated by treatment with 10 mM tris (2-carboxyethyl) phosphine (TCEP) and 40 mM chloroacetamide (CAA) for 10 min at 95°C. SP3 beads were added to each sample concentrated at 25 μL of beads for 100 μg of protein. Samples were washed 3 times with 2x the sample volume of 80% ethanol in the DynaMag™-2 Magnet and protein solutions diluted 5-fold with 50 mM TEAB.
Trypsin was added in a 1:100 (mass trypsin:mass total protein) ratio to target proteins, and the samples were incubated overnight on a rocker at 37°C.
Samples were centrifuged at 16,000 x g for 5 minutes at room temperature. A colorimetric peptide assay (Thermo Fischer Scientific) was run on a sample of each supernatant. The results were used to aliquot […] of protein from each sample, which were then lyophilized in the SpeedVac. Samples were reconstituted in 100mM TEAB, individually labelled using TMT Isobaric Label Reagent Set (Thermo Fischer Scientific), and incubated at room temperature for one hour. Each sample was then incubated at room temperature for 15 minutes with 5uL of 5% hydroxylamine and lyophilized in the SpeedVac. Subsequently, samples were reconstituted in 2% acetonitrile + 0.1% TFA, and a 5uL aliquot of each sample was pooled together. The pooled sample was desalted with C18 Stagetips made from Empore C18 solid phase extraction disks and lyophilized in the SpeedVac. It was then reconstituted in 2% acetonitrile + 0.1% Formic Acid (FA) and transferred to an autosampler vial. LC/MS2 was performed using a nanoLC and orbitrap mass analyzer using a C18 column and DDA/MS2 mass spectrometer method.
Samples were injected (5 μL) onto a reverse phase nanobore HPLC column (AcuTech Scientific, C18, 1.8 μm particle size, 360 μm x 20 cm, 150 μm ID), equilibrated in solvent E and eluted (500 nL/min) with an increasing concentration of solvent F (acetonitrile/water/FA, 98/2/0.1, v/v/v: min/% F; 0/0, 5/3, 18/7, […]
(Framingham, MA)). The effluent from the column was directed to a nanospray ionization source connected to a hybrid quadrupole-Orbitrap mass spectrometer (Q Exactive Plus, Thermo Fisher Scientific) operating in the positive ion data-dependent mode alternating between a full scan (m/z 350-1700, automated gain control (AGC) target 3 x 106, 50 ms maximum injection time, FWHM resolution 70,000 at m/z 200) and up to 10 MS/MS scans (quadrupole isolation of charge states ≥ 2, isolation width 0.7 Th) with optimized fragmentation conditions (normalized collision energy of 32, dynamic exclusion of 30 s, AGC target 1 x 105, 100 ms maximum injection time, FWHM resolution 35,000 at m/z 200). The raw data from both analyses was processed using Proteome Discoverer™ (version 2.4). Tryptic peptides containing amino acid sequences unique to individual proteins were used for identification/quantification of each protein.
Raw data was submitted to a database search using Proteome Discoverer 3.1 [ThermoFischer Scientific]. Using the results for TMT labeling efficiency, sample volumes were adjusted to achieve an equal ratio of protein across TMT labeled samples. Remaining samples were pooled in equal ratio, and the pooled sample was desalted and lyophilized in the SpeedVac overnight.
The pooled sample was fractionated using Pierce High pH Reversed-Phase Peptide Fractionation Kit (Thermo Fischer Scientific) according to the manufacturer’s protocol. The fractions were dried in the SpeedVac and reconstituted in 0.1% formic acid. Samples were transferred to autosampler vials and LC/MS2 was performed as previously described. […]

Experiment [2] concerns NFYb mRNA in Kelly cells. The experiment is described as follows: NFYb mRNA in Kelly neuroblastoma cells. The note with it: 5 µM, 24 h, vs DMSO. It is filed as cell-based, human. On the procedure:
Human neuroblastoma ‘Kelly’ cells (genotype APOE3/APOE4) were plated in 96-well plates at 50K cells per well and were grown overnight in RPMI 1640 supplemented with 2 mM Glutamine, 10% FBS and 1% Pen-Strep. Cells were treated with 5 µM DDL-214, -218, or -219; or DMSO vehicle (n = 8 per compound). Twenty-four hours later, medium was removed, cells washed and lysed as described above for N2a-E4 cells.
Total RNA was isolated from cells or brain tissue (Qiagen RNEasy kit). Total RNA (0.5–1.0 µg) mRNA was then converted to cDNA (SuperScript™ III First-Strand Synthesis SuperMix kit; Thermo Fisher), and gene mRNA levels were measured using a gene-specific qRT-PCR Taqman assays (Thermo Fisher). Gene mRNA levels were normalized to GAPDH mRNA levels measured either in the same cDNA sample or in the same qPCR reaction using multiplexing of gene-of-interest/VIC and GAPDH/FAM, normalized by the delta-delta-Ct method.

Turning to `CC(N)C(=O)OC(C)(C)Cc1ccncc1` (centres unmarked) [DDL-218], the “Abundance Ratio (DDL218/Veh)” value was determined as 1.36 in experiment [1] (Cep170, hippocampal tissue); 1.317 in experiment [1] (Fxyd7, hippocampal tissue); 0.793 in experiment [1] (Luc7l2, hippocampal tissue); 1.374 in experiment [1] (Nubpl, hippocampal tissue); 1.411 in experiment [1] (Ptprn2, hippocampal tissue); 1.22 in experiment [1] (Rpl31, hippocampal tissue). Besides, the “Abundance Ratio (DDL218/Veh)” value in experiment [1] (Rps20, hippocampal tissue) was 1.223; in experiment [1] (Scfd2, hippocampal tissue) it was 1.338; in experiment [1] (Shisa6, hippocampal tissue), 1.219; in experiment [1] (Tbc1d17, hippocampal tissue), 1.25. Further, the “NFYb mRNA” value in experiment [2] is listed as “significantly increases NFYb mRNA”.
